Assay [1] has as its system RNA. The experiment in a line: Binding affinity to complementary RNA (unknown origin) with mismatch bases in sodium phosphate buffer. It is filed as nucleic-acid assay.
Assay [2] has as its system RNA. The experiment in a line: Binding affinity to complementary RNA (unknown origin) in sodium phosphate buffer assessed as melting temperature of PNA-RNA duplex. The class given is nucleic-acid assay.

Structures are written as SMILES. The source made the active and inactive calls. The calls are words filed in the database; no cut-off is given here.

Take `Cc1cn(CC(=O)N(CCNC(=O)CN(CCNC(=O)CN(CCNC(=O)CN(CCNC(=O)CN(CCNC(=O)CN(CCNC(=O)CN(CCNC(=O)CN(CCNC(=O)CN(CCN)C(=O)Cn2cnc3c(N)nc(NCCCCCN)nc32)C(=O)Cn2ccc(N)nc2=O)C(=O)Cn2cnc3c(=O)[nH]c(N)nc32)C(=O)Cn2cnc3c(=O)[nH]c(NCCCCCCN)nc32)C(=O)Cn2ccc(N)nc2=O)C(=O)Cn2cc(C)c(=O)[nH]c2=O)C(=O)Cn2cc3cc(COCCN)[nH]c3nc2=O)C(=O)Cn2ccc(N)nc2=O)CC(=O)NCCN(CC(=O)NCCN(CC(=O)NCCN(CC(=O)NCCN(CC(=O)NCCN(CC(N)=O)C(=O)Cn2cnc3c(=O)[nH]c(N)nc32)C(=O)Cn2cnc3c(=O)[nH]c(NCCCCCCN)nc32)C(=O)Cn2cc(C)c(=O)[nH]c2=O)C(=O)Cn2ccc(N)nc2=O)C(=O)Cn2cc3cc(COCCN)[nH]c3nc2=O)c(=O)[nH]c1=O`: the result in assay [1] was inactive. Further, the Tm in assay [2] was 81 °C.
For `Cc1cn(CC(=O)N(CCNC(=O)CN(CCNC(=O)CN(CCN)C(=O)Cn2ccc(N)nc2=O)C(=O)Cn2cc3cc(COCCN)[nH]c3nc2=O)CC(=O)NCCN(CC(=O)NCCN(CC(=O)NCCN(CC(=O)NCCN(CC(=O)NCCN(CC(=O)NCCN(CC(=O)NCCN(CC(=O)NCCN(CC(=O)NCCN(CC(=O)NCCN(CC(=O)NCCN(CC(=O)NCCN(CC(=O)NCCN(CC(=O)NCCN(CC(=O)NCCN(CC(=O)NCCN(CC(=O)NCCN(CC(=O)O)C(=O)Cn2ccc(N)nc2=O)C(=O)Cn2cnc3c(=O)[nH]c(NCCCCCCN)nc32)C(=O)Cn2ccc(N)nc2=O)C(=O)Cn2ccc(N)nc2=O)C(=O)Cn2cnc3c(=O)[nH]c(NCCCCCCN)nc32)C(=O)Cn2cnc3c(=O)[nH]c(N)nc32)C(=O)Cn2cc(C)c(=O)[nH]c2=O)C(=O)Cn2ccc(N)nc2=O)C(=O)Cn2cnc3c(N)ncnc32)C(=O)Cn2cnc3c(N)nc(NCCCCCN)nc32)C(=O)Cn2cnc3c(N)ncnc32)C(=O)Cn2cnc3c(=O)[nH]c(N)nc32)C(=O)Cn2cc(C)c(=O)[nH]c2=O)C(=O)Cn2ccc(N)nc2=O)C(=O)Cn2ccc(N)nc2=O)C(=O)Cn2cnc3c(N)nc(NCCCCCN)nc32)C(=O)Cn2ccc(N)nc2=O)c(=O)[nH]c1=O`, the result in assay [1] was inactive. In assay [2], the Tm was 79.2 °C.
The corresponding values for `Cc1cn(CC(=O)N(CCN)CC(=O)NCCN(CC(=O)NCCN(CC(=O)NCCN(CC(=O)NCCN(CC(=O)NCCN(CC(=O)NCCN(CC(=O)NCCN(CC(=O)NCCN(CC(=O)NCCN(CC(=O)NCCN(CC(=O)NCCN(CC(=O)NCCN(CC(=O)NCCN(CC(=O)O)C(=O)Cn2ccc(N)nc2=O)C(=O)Cn2cc3cc(COCCN)[nH]c3nc2=O)C(=O)Cn2cc(C)c(=O)[nH]c2=O)C(=O)Cn2ccc(N)nc2=O)C(=O)Cn2cnc3c(=O)[nH]c(NCCCCCCN)nc32)C(=O)Cn2cnc3c(=O)[nH]c(N)nc32)C(=O)Cn2cnc3c(N)nc(NCCCCCN)nc32)C(=O)Cn2ccc(N)nc2=O)C(=O)Cn2cnc3c(=O)[nH]c(NCCCCCCN)nc32)C(=O)Cn2cc(C)c(=O)[nH]c2=O)C(=O)Cn2cnc3c(=O)[nH]c(NCCCCCCN)nc32)C(=O)Cn2cc(C)c(=O)[nH]c2=O)C(=O)Cn2cnc3c(=O)[nH]c(NCCCCCCN)nc32)c(=O)[nH]c1=O` are “inactive” and 70.5 °C.
Regarding `Cc1cn(CC(=O)N(CCNC(=O)CN(CCNC(=O)CN(CCNC(=O)CN(CCNC(=O)CN(CCN)C(=O)Cn2ccc(N)nc2=O)C(=O)Cn2cc(C)c(=O)[nH]c2=O)C(=O)Cn2cc3cc(COCCN)[nH]c3nc2=O)C(=O)Cn2ccc(N)nc2=O)CC(=O)NCCN(CC(=O)NCCN(CC(=O)NCCN(CC(=O)NCCN(CC(=O)NCCN(CC(=O)NCCN(CC(=O)NCCN(CC(=O)NCCN(CC(=O)NCCN(CC(=O)O)C(=O)Cn2cc3cc(COCCN)[nH]c3nc2=O)C(=O)Cn2ccc(N)nc2=O)C(=O)Cn2cnc3c(N)nc(NCCCCCN)nc32)C(=O)Cn2ccc(N)nc2=O)C(=O)Cn2cnc3c(=O)[nH]c(N)nc32)C(=O)Cn2cnc3c(=O)[nH]c(NCCCCCCN)nc32)C(=O)Cn2cc(C)c(=O)[nH]c2=O)C(=O)Cn2cc3cc(COCCN)[nH]c3nc2=O)C(=O)Cn2ccc(N)nc2=O)c(=O)[nH]c1=O`, the outcome in assay [1] was inactive. The Tm in assay [2] was determined as 79 °C.
The matching figures for `Cc1cn(CC(=O)N(CCNC(=O)CN(CCNC(=O)CN(CCN)C(=O)Cn2ccc(N)nc2=O)C(=O)Cn2ccc(N)nc2=O)CC(=O)NCCN(CC(=O)NCCN(CC(=O)NCCN(CC(=O)NCCN(CC(=O)NCCN(CC(=O)NCCN(CC(=O)NCCN(CC(=O)NCCN(CC(=O)NCCN(CC(=O)NCCN(CC(=O)NCCN(CC(=O)O)C(=O)Cn2cnc3c(=O)[nH]c(N)nc32)C(=O)Cn2cnc3c(N)ncnc32)C(=O)Cn2cc3cc(COCCN)[nH]c3nc2=O)C(=O)Cn2ccc(N)nc2=O)C(=O)Cn2cnc3c(N)nc(NCCCCCN)nc32)C(=O)Cn2ccc(N)nc2=O)C(=O)Cn2cnc3c(=O)[nH]c(N)nc32)C(=O)Cn2cnc3c(=O)[nH]c(NCCCCCCN)nc32)C(=O)Cn2cc(C)c(=O)[nH]c2=O)C(=O)Cn2ccc(N)nc2=O)C(=O)Cn2cc3cc(COCCN)[nH]c3nc2=O)c(=O)[nH]c1=O`: “inactive” and 78.1 °C.
With `Cc1cn(CC(=O)N(CCNC(=O)CN(CCNC(=O)CN(CCNC(=O)CN(CCNC(=O)CN(CCNC(=O)CN(CCN)C(=O)Cn2ccc(N)nc2=O)C(=O)Cn2cnc3c(N)nc(NCCCCCN)nc32)C(=O)Cn2cnc3c(=O)[nH]c(N)nc32)C(=O)Cn2cnc3c(=O)[nH]c(N)nc32)C(=O)Cn2cc3cc(COCCN)[nH]c3nc2=O)CC(=O)NCCN(CC(=O)NCCN(CC(=O)NCCN(CC(=O)NCCN(CC(=O)NCCN(CC(=O)NCCN(CC(=O)NCCN(CC(=O)NCCN(CC(=O)O)C(=O)Cn2cnc3c(=O)[nH]c(NCCCCCCN)nc32)C(=O)Cn2cnc3c(=O)[nH]c(N)nc32)C(=O)Cn2cnc3c(=O)[nH]c(N)nc32)C(=O)Cn2cnc3c(=O)[nH]c(NCCCCCCN)nc32)C(=O)Cn2cc(C)c(=O)[nH]c2=O)C(=O)Cn2cc3cc(COCCN)[nH]c3nc2=O)C(=O)Cn2ccc(N)nc2=O)C(=O)Cn2ccc(N)nc2=O)c(=O)[nH]c1=O`, the result in assay [1] was inactive.
Take `Cc1cn(CC(=O)N(CCNC(=O)CN(CCNC(=O)CN(CCNC(=O)CN(CCNC(=O)CN(CCNC(=O)CN(CCNC(=O)CN(CCNC(=O)CN(CCNC(=O)CN(CCNC(=O)CN(CCNC(=O)CN(CCNC(=O)CN(CCNC(=O)CN(CCNC(=O)CN(CCN)C(=O)Cn2cc(C)c(=O)[nH]c2=O)C(=O)Cn2ccc(N)nc2=O)C(=O)Cn2cnc3c(N)nc(NCCCCCN)nc32)C(=O)Cn2cc3cc(COCCN)[nH]c3nc2=O)C(=O)Cn2cnc3c(=O)[nH]c(N)nc32)C(=O)Cn2cnc3c(=O)[nH]c(NCCCCCCN)nc32)C(=O)Cn2ccc(N)nc2=O)C(=O)Cn2cc(C)c(=O)[nH]c2=O)C(=O)Cn2cc3cc(COCCN)[nH]c3nc2=O)C(=O)Cn2ccc(N)nc2=O)C(=O)Cn2cc(C)c(=O)[nH]c2=O)C(=O)Cn2ccc(N)nc2=O)C(=O)Cn2cc3cc(COCCN)[nH]c3nc2=O)CC(=O)O)c(=O)[nH]c1=O`: the outcome in assay [1] was inactive. Besides, the Tm in assay [2] turned out to be 80.4 °C.
Turning to `Cc1cn(CC(=O)N(CCNC(=O)CN(CCNC(=O)CN(CCNC(=O)CN(CCNC(=O)CN(CCNC(=O)CN(CCN)C(=O)Cn2cnc3c(N)nc(NCCCCCN)nc32)C(=O)Cn2cnc3c(N)ncnc32)C(=O)Cn2cnc3c(=O)[nH]c(N)nc32)C(=O)Cn2cnc3c(=O)[nH]c(N)nc32)C(=O)Cn2cc(C)c(=O)[nH]c2=O)CC(=O)NCCN(CC(=O)NCCN(CC(=O)NCCN(CC(=O)NCCN(CC(=O)NCCN(CC(=O)NCCN(CC(=O)NCCN(CC(=O)NCCN(CC(=O)NCCN(CC(=O)NCCN(CC(=O)NCCN(CC(=O)NCCN(CC(=O)NCCN(CC(=O)NCCN(CC(=O)O)C(=O)Cn2cnc3c(N)nc(NCCCCCN)nc32)C(=O)Cn2ccc(N)nc2=O)C(=O)Cn2cnc3c(N)ncnc32)C(=O)Cn2cnc3c(N)nc(NCCCCCN)nc32)C(=O)Cn2cc(C)c(=O)[nH]c2=O)C(=O)Cn2ccc(N)nc2=O)C(=O)Cn2ccc(N)nc2=O)C(=O)Cn2cnc3c(=O)[nH]c(N)nc32)C(=O)Cn2cnc3c(=O)[nH]c(N)nc32)C(=O)Cn2cnc3c(N)nc(NCCCCCN)nc32)C(=O)Cn2ccc(N)nc2=O)C(=O)Cn2ccc(N)nc2=O)C(=O)Cn2cc3cc(COCCN)[nH]c3nc2=O)C(=O)Cn2ccc(N)nc2=O)c(=O)[nH]c1=O`, in assay [1], the outcome was inactive. The Tm in assay [2] was greater than 90 °C.
As to `Cc1cn(CC(=O)N(CCNC(=O)CN(CCNC(=O)CN(CCNC(=O)CN(CCNC(=O)CN(CCNC(=O)CN(CCNC(=O)CN(CCNC(=O)CN(CCNC(=O)CN(CCNC(=O)CN(CCNC(=O)CN(CCNC(=O)CN(CCNC(=O)CN(CCN)C(=O)Cn2cnc3c(N)nc(NCCCCCN)nc32)C(=O)Cn2ccc(N)nc2=O)C(=O)Cn2cc(C)c(=O)[nH]c2=O)C(=O)Cn2ccc(N)nc2=O)C(=O)Cn2cnc3c(N)nc(NCCCCCN)nc32)C(=O)Cn2ccc(N)nc2=O)C(=O)Cn2cnc3c(=O)[nH]c(N)nc32)C(=O)Cn2cnc3c(=O)[nH]c(N)nc32)C(=O)Cn2ccc(N)nc2=O)C(=O)Cn2cc(C)c(=O)[nH]c2=O)C(=O)Cn2cc3cc(COCCN)[nH]c3nc2=O)C(=O)Cn2ccc(N)nc2=O)CC(=O)NCCN(CC(=O)NCCN(CC(=O)NCCN(CC(=O)NCCN(CC(=O)NCCN(CC(=O)NCCN(CC(=O)NCCN(CC(=O)O)C(=O)Cn2cnc3c(N)nc(NCCCCCN)nc32)C(=O)Cn2ccc(N)nc2=O)C(=O)Cn2cnc3c(=O)[nH]c(N)nc32)C(=O)Cn2cnc3c(=O)[nH]c(NCCCCCCN)nc32)C(=O)Cn2cc(C)c(=O)[nH]c2=O)C(=O)Cn2ccc(N)nc2=O)C(=O)Cn2ccc(N)nc2=O)c(=O)[nH]c1=O`, in assay [1], the outcome was inactive. For the same compound, the midpoint of thermal melting (Tm) in assay [2] is greater than 90 °C.
